# Key:
# Malassezia furfur = test: Minimum inhibitory concentration (MIC), growth inhibition of Malassezia by culture optical density; format: cell-based; settings: material alone, OD <= 20% of untreated control, 33° C., two days, M. Dixon medium pH 5.5, average of two replicates; for MIC: Malassezia furfur, 48 h
# Description: To measure the growth inhibition properties of test materials against Malassezia, the following protocol is followed. The Malassezia furfur is cultured in 50 ml M. […] The pH is adjusted to 5.5 using 1N HCl. The media is autoclaved. Starting cultures are prepared by incubating freezer stocks with shaking at 33° C. The inoculum of Malassezia cells is 5.5×10^5 cfu/ml. Cells are incubated at 33° C. for two days. After the two day incubation optical density is read and background subtracted. MIC values are determined by averaging the results from two replicate experiments.
# [1] = from NIST Standard Reference Database 46; cited from earlier work
# M.Furfur 7892 cells = test: Modified Fractional Inhibitory Concentration (MFIC), anti-Malassezia activity of combinations; format: cell-based, Malassezia furfur; settings: titrated from 400 ppm; for MFIC: Table 3, chelator as Material #2 combined with the 2-pyridinol-N-oxide material at 1/2 its MIC; for Modified Fractional Inhibitory Concentration (MFIC): lowest concentration of Material #2 inhibiting growth with Material #1 (1-hydroxy-4-methyl-6-(2,4,4-trimethylpentyl)-2-pyridone monoethanolamine salt) at 1/2 its MIC, 33° C., 2 days
# Description: A Modified Fractional Inhibitory Concentration (MFIC) is used to determine the combinatorial effects of two chemicals on anti-Malassezia activity in a tissue culture setting. […] I. […] Low levels of M.Furfur 7892 cells are inoculated into each well of a 96 well plate. • 3. […] Plates are incubated at 33° C. for 2 days. • 6. Optical densities (OD's) are then determined using a spectrophotometer. II. […] Inhibition of growth is determined if the culture optical density is less than or equal to ⅕ (20%) of the culture optical density of the untreated control • 2.
smiles,measurement,setting,value
"Cc1cc(CC(C)CC(C)(C)C)n(O)c(=O)c1.NCCO (centres unmarked) [1-hydroxy-4-methyl-6-(2,4,4-trimethylpentyl)-2-pyridone monoethanolamine salt]",MIC,Malassezia furfur,25 µg/mL
O=C(O)CC(O)(CC(=O)O)C(=O)O [Citric Acid],Log K1 (iron binding affinity),[1],11
same,MFIC,M.Furfur 7892 cells,>400 ppm
CC(=O)N(O)CCCCCNC(=O)CCC(=O)N(O)CCCCCNC(=O)CCC(=O)N(O)CCCCCN [Desferrioxamine],Log K1 (iron binding affinity),[1],31
same,MIC,Malassezia furfur,> 400 µg/mL
same,MFIC,M.Furfur 7892 cells,5 ppm
same,Modified Fractional Inhibitory Concentration (MFIC),M.Furfur 7892 cells,5 ppm
O=C(O)CN(CCN(CC(=O)O)CC(=O)O)CCN(CC(=O)O)CC(=O)O [Diethylenetriaminepentaacetic acid],Log K1 (iron binding affinity),[1],28
same,Minimum inhibitory concentration (MIC),Malassezia furfur,>400 ppm
same,MFIC,M.Furfur 7892 cells,37 ppm
same,Modified Fractional Inhibitory Concentration (MFIC),M.Furfur 7892 cells,37 ppm
O=P(O)(O)CN(CCN(CP(=O)(O)O)CP(=O)(O)O)CCN(CP(=O)(O)O)CP(=O)(O)O [Diethylenetriaminepentakis(methylenephosphonic acid)],Log K1 (iron binding affinity),[1],23
same,Minimum inhibitory concentration (MIC),Malassezia furfur,>400 ppm
same,MFIC,M.Furfur 7892 cells,50 ppm
same,Modified Fractional Inhibitory Concentration (MFIC),M.Furfur 7892 cells,50 ppm
"CC(C(=O)O)N(CC(=O)O)CC(=O)O (centres unmarked) [Methylglycine diacetic acid (MGDA), Methylglycine diacetic acid]",Log K1 (iron binding affinity),[1],16
same,MFIC,M.Furfur 7892 cells,>400 ppm
